Results taken from ChEMBL document CHEMBL1130231, “Betidamino acid scan of the GnRH antagonist acyline” (J Med Chem, 1997).
Calls of active or inactive are those of the source. The calls are words filed in the database; no cut-off is given here.

What was measured:
Assay type in all cases: functional, organism-based
[1] = test system: Rattus norvegicus; assay: Ratio of ovulated rats to total number of rats determined in a anti-ovulatory assay by administering 5 microg of compound; 4/8
[2] = test system: Rattus norvegicus; assay: Ratio of ovulated rats to total number of rats determined in a anti-ovulatory assay by administering 10 microg of compound; 2/6
[3] = test system: Rattus norvegicus; assay: Ratio of ovulated rats to total number of rats determined in a anti-ovulatory assay by administering 25 microg of compound; 0/3
[4] = test system: Rattus norvegicus; assay: Ratio of ovulated rats to total number of rats determined in a anti-ovulatory assay by administering 10 microg of compound; 8/8
[5] = test system: Rattus norvegicus; assay: Ratio of ovulated rats to total number of rats determined in a anti-ovulatory assay by administering 25 microg of compound; 6/8
[6] = test system: Rattus norvegicus; assay: Ratio of ovulated rats to total number of rats determined in a anti-ovulatory assay by administering 5 microg of compound; 0/8
[7] = test system: Rattus norvegicus; assay: Ratio of ovulated rats to total number of rats determined in a anti-ovulatory assay by administering 1 ug of compound; 6/8
[8] = test system: Rattus norvegicus; assay: Ratio of ovulated rats to total number of rats determined in a anti-ovulatory assay by administering 5 microg of compound; 1/8
[9] = test system: Rattus norvegicus; assay: Ratio of ovulated rats to total number of rats determined in a anti-ovulatory assay by administering 10 ug of compound; 0/8
[10] = test system: Rattus norvegicus; assay: Ratio of ovulated rats to total number of rats determined in a anti-ovulatory assay by administering 10 microg of compound; 4/8
[11] = test system: Rattus norvegicus; assay: Ratio of ovulated rats to total number of rats determined in a anti-ovulatory assay by administering 2.5 microg of compound; 7/8
[12] = test system: Rattus norvegicus; assay: Ratio of ovulated rats to total number of rats determined in a anti-ovulatory assay by administering 50 microg of compound; 3/8
[13] = test system: Rattus norvegicus; assay: Ratio of ovulated rats to total number of rats determined in a anti-ovulatory assay by administering 100 microg of compound; 0/8
[14] = test system: Rattus norvegicus; assay: Ratio of ovulated rats to total number of rats determined in a anti-ovulatory assay by administering 2.5 microg of compound; 0/8
[15] = test system: Rattus norvegicus; assay: Ratio of ovulated rats to total number of rats determined in a anti-ovulatory assay by administering 1 microg of compound; 1/8
[16] = test system: Rattus norvegicus; assay: Ratio of ovulated rats to total number of rats determined in a anti-ovulatory assay by administering 2.5 microg of compound; 0/7
[17] = test system: Rattus norvegicus; assay: Ratio of ovulated rats to total number of rats determined in a anti-ovulatory assay by administering 0.5 microg of compound; 6/7
[18] = test system: Rattus norvegicus; assay: Ratio of ovulated rats to total number of rats determined in a anti-ovulatory assay by administering 1 microg of compound; 5/13
[19] = test system: Rattus norvegicus; assay: Ratio of ovulated rats to total number of rats determined in a anti-ovulatory assay by administering 2.5 microg of compound; 5/8
[20] = test system: Rattus norvegicus; assay: Ratio of ovulated rats to total number of rats determined in a anti-ovulatory assay by administering 10 microg of compound; 3/7
[21] = test system: Rattus norvegicus; assay: Ratio of ovulated rats to total number of rats determined in a anti-ovulatory assay by administering 1 microg of compound; 2/7

**Q.** With `CC(=O)Nc1ccc(C[C@H](NC(=O)[C@H](NC(=O)CO)NC(=O)[C@@H](Cc2cccnc2)NC(=O)[C@@H](Cc2ccc(Cl)cc2)NC(=O)[C@@H](Cc2ccc3ccccc3c2)NC(C)=O)C(=O)N[C@H](Cc2ccc(NC(C)=O)cc2)C(=O)N[C@@H](CC(C)C)C(=O)N[C@@H](CCCCNC(C)C)C(=O)N2CCC[C@@H]2C(=O)N[C@H](C)C(N)=O)cc1` (single isomer, unassigned) as the compound, how does the ov. rat/total [1] read?
**A.** Its ov. rat/total is “Partially active”.

**Q.** `CC(=O)Nc1ccc(C[C@H](NC(=O)[C@H](CO)NC(=O)[C@@H](Cc2cccnc2)NC(=O)[C@@H](Cc2ccc(Cl)cc2)NC(=O)[C@H](Cc2ccc3ccccc3c2)NC(C)=O)C(=O)N[C@H](Cc2ccc(NC(C)=O)cc2)C(=O)N[C@@H](CC(C)C)C(=O)N[C@@H](CCCCNC(C)C)C(=O)N2CCC[C@@H]2C(=O)N[C@H](C)C(N)=O)cc1` was tested. Which ov. rat/total [2] did it give?
**A.** The ov. rat/total was “Partially active”.

**Q.** And the ov. rat/total [3]?
**A.** Its ov. rat/total is “Active”.

**Q.** Which ov. rat/total [4] does the source give for `CC(=O)Nc1ccc(C[C@H](NC(=O)[C@H](CO)NC(=O)[C@@H](NC(=O)[C@@H](Cc2ccc(Cl)cc2)NC(=O)[C@@H](Cc2ccc3ccccc3c2)NC(C)=O)N(C)C(=O)c2cccnc2)C(=O)N[C@H](Cc2ccc(NC(C)=O)cc2)C(=O)N[C@@H](CC(C)C)C(=O)N[C@@H](CCCCNC(C)C)C(=O)N2CCC[C@@H]2C(=O)N[C@H](C)C(N)=O)cc1` (single isomer, unassigned) here?
**A.** Its ov. rat/total is “inactive”.

**Q.** What about the ov. rat/total [5] of the same compound?
**A.** The ov. rat/total was “inactive”.

**Q.** `CC(=O)Nc1ccc(C[C@H](NC(=O)[C@H](NC=O)NC(=O)[C@@H](Cc2cccnc2)NC(=O)[C@@H](Cc2ccc(Cl)cc2)NC(=O)[C@@H](Cc2ccc3ccccc3c2)NC(C)=O)C(=O)N[C@H](Cc2ccc(NC(C)=O)cc2)C(=O)N[C@@H](CC(C)C)C(=O)N[C@@H](CCCCNC(C)C)C(=O)N2CCC[C@@H]2C(=O)N[C@H](C)C(N)=O)cc1` was tested. Which ov. rat/total [6] did it give?
**A.** The ov. rat/total was “Active”.

**Q.** And the ov. rat/total [7]?
**A.** Its ov. rat/total is “inactive”.

**Q.** `CC(=O)Nc1ccc(C[C@H](NC(=O)[C@H](CO)NC(=O)[C@H](Cc2cccnc2)NC(=O)[C@@H](Cc2ccc(Cl)cc2)NC(=O)[C@@H](Cc2ccc3ccccc3c2)NC(C)=O)C(=O)N[C@H](Cc2ccc(NC(C)=O)cc2)C(=O)N[C@@H](CC(C)C)C(=O)N[C@@H](CCCCNC(C)C)C(=O)N2CCC[C@@H]2C(=O)N[C@H](C)C(N)=O)cc1` was tested. Which ov. rat/total [8] did it give?
**A.** Its ov. rat/total is “Active”.

**Q.** And the ov. rat/total [9]?
**A.** The ov. rat/total was “Active”.

**Q.** For `CC(=O)Nc1ccc(C[C@H](NC(=O)[C@H](CO)NC(=O)[C@@H](Cc2cccnc2)NC(=O)[C@@H](Cc2ccc(Cl)cc2)NC(=O)[C@@H](Cc2ccc3ccccc3c2)NC(C)=O)C(=O)N[C@H](Cc2ccc(NC(C)=O)cc2)C(=O)N[C@@H](CC(C)C)C(=O)N[C@@H](C(=O)N2CCC[C@@H]2C(=O)N[C@H](C)C(N)=O)N(C)C(=O)CCNC(C)C)cc1` (single isomer, unassigned), which ov. rat/total [10] is on record?
**A.** The ov. rat/total was “Partially active”.

**Q.** What about the ov. rat/total [11] of the same compound?
**A.** The ov. rat/total was “inactive”.

**Q.** Which results are given for `CC(=O)Nc1ccc(C[C@H](NC(=O)[C@H](CO)NC(=O)[C@@H](Cc2cccnc2)NC(=O)[C@H](NC(=O)[C@@H](Cc2ccc3ccccc3c2)NC(C)=O)N(C)C(=O)c2ccc(Cl)cc2)C(=O)N[C@H](Cc2ccc(NC(C)=O)cc2)C(=O)N[C@@H](CC(C)C)C(=O)N[C@@H](CCCCNC(C)C)C(=O)N2CCC[C@@H]2C(=O)N[C@H](C)C(N)=O)cc1`?
**A.** ov. rat/total [12]: Partially active; ov. rat/total [13]: Active

**Q.** How did the ov. rat/total [14] turn out when `CC(=O)Nc1ccc(C[C@H](NC(=O)[C@H](CO)NC(=O)[C@@H](Cc2cccnc2)NC(=O)[C@@H](Cc2ccc(Cl)cc2)NC(=O)[C@@H](Cc2ccc3ccccc3c2)NC(C)=O)C(=O)N[C@H](Cc2ccc(NC(C)=O)cc2)C(=O)N[C@@H](CC(C)C)C(=O)N[C@@H](CCCCNC(C)C)C(=O)N2CCC[C@@H]2C(=O)N[C@H](C(N)=O)N(C)C=O)cc1` was run?
**A.** The ov. rat/total was “Active”.

**Q.** And the ov. rat/total [15]?
**A.** The ov. rat/total was “inactive”.

**Q.** Which results are given for `CC(=O)Nc1ccc(C[C@H](NC(=O)[C@H](CO)NC(=O)[C@@H](Cc2cccnc2)NC(=O)[C@@H](Cc2ccc(Cl)cc2)NC(=O)[C@@H](Cc2ccc3ccccc3c2)NC(C)=O)C(=O)N[C@H](Cc2ccc(NC(C)=O)cc2)C(=O)N[C@@H](CC(C)C)C(=O)N[C@@H](CCCCNC(C)C)C(=O)N2CCC[C@@H]2C(=O)N[C@H](C)C(N)=O)cc1`?
**A.** ov. rat/total [16]: Active; ov. rat/total [17]: inactive; ov. rat/total [18]: Partially active

**Q.** How did the ov. rat/total [19] turn out when `CC(=O)Nc1ccc(C[C@H](NC(=O)[C@@H](NC(=O)[C@@H](Cc2cccnc2)NC(=O)[C@@H](Cc2ccc(Cl)cc2)NC(=O)[C@@H](Cc2ccc3ccccc3c2)NC(C)=O)N(C)C=O)C(=O)N[C@H](Cc2ccc(NC(C)=O)cc2)C(=O)N[C@@H](CC(C)C)C(=O)N[C@@H](CCCCNC(C)C)C(=O)N2CCC[C@@H]2C(=O)N[C@H](C)C(N)=O)cc1` (single isomer, unassigned) was run?
**A.** Its ov. rat/total is “Partially active”.

**Q.** `CC(=O)Nc1ccc(C[C@H](NC(=O)[C@H](CO)NC(=O)[C@H](NC(=O)c2ccncc2)NC(=O)[C@@H](Cc2ccc(Cl)cc2)NC(=O)[C@@H](Cc2ccc3ccccc3c2)NC(C)=O)C(=O)N[C@H](Cc2ccc(NC(C)=O)cc2)C(=O)N[C@@H](CC(C)C)C(=O)N[C@@H](CCCCNC(C)C)C(=O)N2CCC[C@@H]2C(=O)N[C@H](C)C(N)=O)cc1` (single isomer, unassigned) was tested. Which ov. rat/total [20] did it give?
**A.** The ov. rat/total was “Partially active”.

**Q.** What does the source list for `CC(=O)Nc1ccc(C[C@H](NC(=O)[C@H](CO)NC(=O)[C@@H](Cc2cccnc2)NC(=O)[C@@H](Cc2ccc(Cl)cc2)NC(=O)[C@@H](NC(C)=O)NC(=O)c2ccc3ccccc3c2)C(=O)N[C@H](Cc2ccc(NC(C)=O)cc2)C(=O)N[C@@H](CC(C)C)C(=O)N[C@@H](CCCCNC(C)C)C(=O)N2CCC[C@@H]2C(=O)N[C@H](C)C(N)=O)cc1`?
**A.** ov. rat/total [14]: Active; ov. rat/total [21]: Partially active
